Entries after “also recorded” stand apart in the source; their conditions may differ. Ends that are not written are not given here.

The nature of series [1]: Chemical stability: hydrolysis of conjugates in water for one hour. The class given is physicochemical. On the procedure:
Exemplary conjugates of hydrocodone of the present technology and control test conjugates not of the present technology were tested for chemical stability under conditions similar to what a potential drug abuser may use to “extract” the active portion of the molecule, for example dissolved in water, hydrochloric acid or sodium bicarbonate either at ambient temperature or 100° C.

Series [2] in a line: Hydrolysis to hydrocodone in 1 N hydrochloric acid for 1 hour.
Series [3] can be described thus: Oral PK profiles in rats (plasma hydrocodone, hydromorphone, intact Bz-HC by LC/MS/MS). The following applies: equivalent to 2 mg/kg hydrocodone freebase.
Series [4] can be described thus: Hydrolysis in 5% NaHCO3 for one hour. Type of series: physicochemical.
The nature of series [5]: Water solubility / feasibility of intranasal or intravenous dosing. Conditions: water.
A short description of series [6]: Intranasal PK profile in rats. Conditions: equivalent to 2 mg/kg hydrocodone freebase.

On to “2-aminobenzoate hydrocodone [Compound 2-ABz-HC]”, for which the “%-release (conjugate hydrolyzed) in water” value (“%-release … in water” below) in series [1] (100° C.) is listed as 0%. Also, in series [1] (ambient (about 20° C.)), the “%-release … in water” value was found to be 0%. The “%-release in 1N HCl” value in series [2] (100° C.) is 16%. The “%-release in 1N HCl” value in series [2] (ambient (~20° C.)) is listed as 0%. Besides, in series [3], the “AUC of hydrocodone, % lower than Hydrocodone.BT” value is “approximately 35%”; the “AUC of hydromorphone, % lower than Hydrocodone.BT” value is “approximately 25%”; the “Cmax of hydrocodone, % lower than Hydrocodone.BT” value is listed as around 60%; the “Cmax of hydromorphone, % lower than Hydrocodone.BT” value is around 50%.
Consider `COc1ccc(C(=O)OC2=CC[C@H]3[C@H]4Cc5ccc(OC)c6c5[C@@]3(CCN4C)C2O6)cc1O` (stereo partly shown) [3-OH-4-MeO-Bz-HC], for which the “%-release in 5% NaHCO3” value in series [4] (5% NaHCO3, 100° C.) was found to be 36%; in series [4] (5% NaHCO3, ambient (~20° C.)), 0%. The results for the “%-release in 1N HCl” value in series [2] (100° C.) and in series [2] (ambient (~20° C.)) were 35% and 0%, respectively. The “water solubility (in words)” value in series [5] is reported as “poorly water soluble; also recorded: hydrophobic”.
For `COc1ccc2c3c1OC1C(OC(=O)CCCCC(=O)O)=CC[C@H]4[C@@H](C2)N(C)CC[C@]314` (stereo partly shown) [Adipate-HC, reference compound], in series [4] (5% NaHCO3, 100° C.), the “%-release in 5% NaHCO3” value stood at 100%. In series [4] (5% NaHCO3, ambient (~20° C.)), the “%-release in 5% NaHCO3” value is 3%. Moreover, in series [6], the “AUC for hydromorphone (FIG. 8), % higher than Bz-HC” value was “approximately 750%”; the “AUC for hydromorphone (so in the source); FIG. 7, hydrocodone curves), % higher than Bz-HC” value was “approximately 280%”; the “Cmax for hydromorphone (FIG. 8), % higher than Bz-HC” value is reported as around 660%; the “Cmax for hydromorphone (so in the source); FIG. 7, hydrocodone curves), % higher than Bz-HC” value was around 60%. The “%-release in 1N HCl” value in series [2] (100° C.) was found to be 100%. The “%-release in 1N HCl” value in series [2] (ambient (~20° C.)) is reported as 13%. Further, the “water solubility (in words)” value in series [5] is on record as “water soluble”.
In the case of `COc1ccc2c3c1OC1C(OC(=O)c4cccc(O)c4)=CC[C@H]4[C@@H](C2)N(C)CC[C@]314` (stereo partly shown) [Compound 3-OH-Bz-HC], the “water solubility (in words)” value in series [5] is listed as “poorly water soluble; also recorded: hydrophobic”.
On to `COc1ccc(C(=O)OC2=CC[C@H]3[C@H]4Cc5ccc(OC)c6c5[C@@]3(CCN4C)C2O6)cc1` (stereo partly shown) [Compound 4-MeO-Bz-HC], for which the “%-release … in water” value in series [1] (100° C.) and in series [1] (ambient (about 20° C.)) was 0% in each case. For the same compound, the “water solubility (in words)” value in series [5] is “hydrophobic”.
As for `COc1ccc2c3c1OC1C(OC(=O)c4ccc(O)cc4)=CC[C@H]4[C@@H](C2)N(C)CC[C@]314` (stereo partly shown) [Compound 4-OH-Bz-HC], the “%-release … in water” value in series [1] (100° C.) and in series [1] (ambient (about 20° C.)) was 0% each time. The “%-release in 5% NaHCO3” value stood at 23% in series [4] (5% NaHCO3, 100° C.) and 1% in series [4] (5% NaHCO3, ambient (~20° C.)). The “%-release in 1N HCl” value came out at 30% in series [2] (100° C.) and 0% in series [2] (ambient (~20° C.)). Moreover, the “water solubility (in words)” value in series [5] is listed as “hydrophobic”.
Consider `COc1ccc2c3c1OC1C(OC(=O)COCC(=O)O)=CC[C@H]4[C@@H](C2)N(C)CC[C@]314` (stereo partly shown) [Diglycolate-HC, reference compound], for which the “water solubility (in words)” value in series [5] is given as “water soluble”.
For the compound `COc1ccc2c3c1OC1C(OC(=O)c4cccnc4)=CCC4C(C2)N(C)CCC314` (stereo not shown) [Nicotinate-HC, nicotinate-hydrocodone], the “water solubility (in words)” value in series [5] is listed as “hydrophobic”. Further, the “AUC values of hydrocodone and hydromorphone compared to Hydrocodone.BT (in words)” value in series [3] is reported as “within the range of bioequivalence”.
In the case of `COc1ccc2c3c1OC1C(OC(=O)c4ccc5c(c4)OCO5)=CC[C@H]4[C@@H](C2)N(C)CC[C@]314` (stereo partly shown) [Piperonylate-HC], the “water solubility (in words)” value in series [5] is “hydrophobic”; in series [5] (listed as piperonylate-HC) it was “poorly water soluble”.
Take “Tyr-Tyr-Phe-Phe-Ile-Hydrocodone (YYFFI-Hydrocodone) [YYFFI-HC, reference compound]”: the “%-release in 5% NaHCO3” value in series [4] (5% NaHCO3, 100° C.) is listed as 70%; in series [4] (5% NaHCO3, ambient (~20° C.)) it was 0%.

(Values after patent US10351573B2, “Benzoic acid, benzoic acid derivatives and heteroaryl carboxylic acid conjugates of hydrocodone, prodrugs, methods of making and uses thereof” (KemPharm, Inc., priority 2009, dated 2019).)
